The record followed here is US7585859B2, “PDE4B inhibitors and uses therefor” (Plexxikon, Inc., priority 2004, dated 2009).

Assay [1] addresses T1, PDE4B: The catalytic domain of human PDE4B from S152-S528 (Homo sapiens, UniProt Q07343).
T1 construct: His6 (N); thrombin cleavage site (N); made in house; host or cells: E. coli
As to the kind of experiment: PDE4 IC50 determination by Scintillation Proximity Assay, PDE4B. The assay is classed as biochemical. The procedure, abridged: (§1)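 Enzyme was added to compound and [^3H]cAMP, then incubated 30 min at 30° (PDE4B 80 ng/ml; PDE4D 4 ng/ml). Product [^3H]AMP bound to SPA beads and was counted. IC50 was fitted by non-linear regression against DMSO and roflumilast controls.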
On the technique in general: In a scintillation proximity assay essentially only radioactivity close to the scintillant gives light.

The target in the next assay is T2, PDE4D (Homo sapiens, UniProt Q08499).
T2 construct: PDE4D: The catalytic domain of human PDE4B from S3 16-V692; His6 (N); thrombin cleavage site (N); made in house; host or cells: E. coli
As to the kind of experiment: PDE4 IC50 determination by Scintillation Proximity Assay, PDE4D. The assay is classed as biochemical. An outline of the steps: as §1

The mark [2] stands for this setting: Table 3A, Formula III compounds, read-out: IC50 PDE4B.
Where [3] appears, read: Table 3A, Formula III compounds, read-out: IC50 PDE4D.
Setting [4] is: Table 1B, Formula I compounds, read-out: IC50 PDE4B.
Where [5] appears, read: Table 1B, Formula I compounds, read-out: IC50 PDE4D.
[6] abbreviates: second part of Table 2B (2-23 to 2-103), column 3, column is PDE4B in first part, read-out: IC 50 vs. indicated assay h TNFα.
Setting [7] is: second part of Table 2B (2-23 to 2-103), column 5, column is PDE4D in first part, read-out: IC 50 vs. indicated assay h TNFα.

Each structure is given as a SMILES string. Where two headings read alike, the source gives them in different places.

T1 sequence (Q07343 with tags, fused parts or gaps): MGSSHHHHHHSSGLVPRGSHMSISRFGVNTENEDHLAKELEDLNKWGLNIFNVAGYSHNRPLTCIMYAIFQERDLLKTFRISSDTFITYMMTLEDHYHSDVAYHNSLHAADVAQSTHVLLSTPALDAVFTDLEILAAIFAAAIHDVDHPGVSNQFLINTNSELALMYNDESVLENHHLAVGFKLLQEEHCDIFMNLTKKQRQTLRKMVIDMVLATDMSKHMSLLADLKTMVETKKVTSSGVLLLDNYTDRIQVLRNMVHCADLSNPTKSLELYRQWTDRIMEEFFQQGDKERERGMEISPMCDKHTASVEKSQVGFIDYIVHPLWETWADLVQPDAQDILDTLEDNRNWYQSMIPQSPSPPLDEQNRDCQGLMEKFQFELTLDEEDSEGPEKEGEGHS
T2 sequence (Q08499 380-756): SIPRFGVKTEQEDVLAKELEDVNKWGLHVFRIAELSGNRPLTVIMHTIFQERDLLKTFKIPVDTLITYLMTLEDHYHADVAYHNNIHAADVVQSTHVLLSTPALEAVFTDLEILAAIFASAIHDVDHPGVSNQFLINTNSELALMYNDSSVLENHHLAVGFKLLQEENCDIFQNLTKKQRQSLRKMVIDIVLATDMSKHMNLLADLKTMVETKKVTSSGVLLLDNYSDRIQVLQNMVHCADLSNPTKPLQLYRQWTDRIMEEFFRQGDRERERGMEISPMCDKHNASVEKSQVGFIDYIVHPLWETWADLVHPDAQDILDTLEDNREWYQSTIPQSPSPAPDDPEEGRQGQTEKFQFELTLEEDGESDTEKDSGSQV

As for `O=C(NCc1ccc(S(=O)(=O)Nc2cccc3cccnc23)s1)c1ccccc1` [Compound 3-32, N-[5-(Quinolin-8-ylsulfamoyl)-thiophen-2-ylmethyl]-benzamide], the IC50 (in assay [1] (setting [2]); on PDE4D (setting [3])) was greater than 10 µM in each case.
`N#Cc1c(NC2CCOC2=O)sc(C(=O)c2csc3ccccc23)c1N` (stereo not shown) [Compound 1-159, 4-Amino-5-(benzo[b]thiophene-3-carbonyl)-2-(2-oxo-tetrahydro-furan-3-ylamino)-thiophene-3-carbonitrile]: the IC50 (in assay [1] (setting [4]); at PDE4D (setting [5])) was less than 10 µM each time.
For the molecule `Cc1c(C(=O)c2sc(Nc3ccccc3F)c(C#N)c2N)cnn1-c1ccccc1` [Compound 1-49, 4-Amino-2-(2-fluoro-phenylamino)-5-(5-methyl-1-phenyl-1H-pyrazole-4-carbonyl)-thiophene-3-carbonitrile], the IC50 (in assay [1] (setting [4]); at PDE4D (setting [5])) was less than 10 µM each time.
Consider `COc1ccc(C(=O)c2sc(NC3CCOC3=O)c(C#N)c2N)c(OC)c1` (stereo not shown) [Compound 1-44, 4-Amino-5-(2,4-dimethoxy-benzoyl)-2-(2-oxo-tetrahydro-furan-3-ylamino)-thiophene-3-carbonitrile], for which the IC50 in assay [1] (setting [4]) is less than 10 µM; on PDE4D (setting [5]), greater than 10 µM.
`N#Cc1c(Nc2ccc(Oc3ccccc3)cc2)sc(C(N)=O)c1N` [Compound 1-197, 3-Amino-4-cyano-5-(4-phenoxy-phenylamino)-thiophene-2-carboxylic acid amide]: the IC50 (in assay [1] (setting [4]); on PDE4D (setting [5])) was greater than 10 µM throughout.
On to `Cc1ccc(C(=O)c2sc(Nc3ccc(C(=O)NC4CCOC4=O)cc3)c(C#N)c2N)c(C)c1` (stereo not shown) [Compound 1-89, 4-[4-Amino-3-cyano-5-(2,4-dimethyl-benzoyl)-thiophen-2-ylamino]-N-(2-oxo-tetrahydro-furan-3-yl)-benzamide], for which the IC50 (in assay [1] (setting [4]); at PDE4D (setting [5])) was less than 10 µM each time.
`O=S(=O)(Nc1cccc2cccnc12)c1ccc(-c2ccccn2)s1` [Compound 3-30, 5-Pyridin-2-yl-thiophene-2-sulfonic acid quinolin-8-ylamide]: the IC50 (in assay [1] (setting [2]); on PDE4D (setting [3])) was greater than 10 µM each time.
As to `CCOC(=O)c1cc(C(=O)c2sc(NCCN3CCCCC3)c(C#N)c2N)on1` [Compound 1-135, 5-[3-Amino-4-cyano-5-(2-piperidin-1-yl-ethylamino)-thiophene-2-carbonyl]-isoxazole-3-carboxylic acid ethyl ester], the IC50 (in assay [1] (setting [4]); on PDE4D (setting [5])) was less than 10 µM throughout.
With `COc1cc(NS(=O)(=O)c2ccc(-c3cc(C(F)(F)F)on3)s2)c2ncccc2c1` [Compound 3-27, 5-(5-Trifluoromethyl-isoxazol-3-yl)-thiophene-2-sulfonic acid (6-methoxy-quinolin-8-yl)-amide], the IC50 (in assay [1] (setting [2]); on PDE4D (setting [3])) was greater than 10 µM each time.
Regarding `Nc1nc(NC2CC2)sc1C(=O)c1cccc(Cl)c1` [Compound 2-81, (4-Amino-2-cyclopropylamino-thiazol-5-yl)-(3-chloro-phenyl)-methanone], the IC50 (in assay [1] (setting [6]); at PDE4D (setting [7])) was less than 10 µM throughout.
`COc1ccc(C(=O)c2sc(Nc3cccc(C#N)c3)nc2N)cc1` [Compound 2-48, 3-[4-Amino-5-(4-methoxy-benzoyl)-thiazol-2-ylamino]-benzonitrile]: the IC50 (in assay [1] (setting [6]); at PDE4D (setting [7])) was less than 10 µM each time.
As for `COC(=O)C(CC(C)C)Nc1sc(C(=O)c2ccc(-c3ccccn3)s2)c(N)c1C#N` (stereo not shown) [Compound 1-72, 2-[4-Amino-3-cyano-5-(5-pyridin-2-yl-thiophene-2-carbonyl)-thiophen-2-ylamino]-4-methyl-pentanoic acid methyl ester], the IC50 (in assay [1] (setting [4]); at PDE4D (setting [5])) was less than 10 µM each time.
Turning to `N#Cc1cccc(Nc2nc(N)c(C(=O)c3cccc(C(F)(F)F)c3)s2)c1` [Compound 2-56, 3-[4-Amino-5-(3-trifluoromethyl-benzoyl)-thiazol-2-ylamino]-benzonitrile], the IC50 (in assay [1] (setting [6]); on PDE4D (setting [7])) was less than 10 µM in each case.
As to `COc1ccc(C(=O)c2sc(NC3CCCC3)nc2N)cc1` [Compound 2-78, (4-Amino-2-cyclopentylamino-thiazol-5-yl)-(4-methoxy-phenyl)-methanone], the IC50 (in assay [1]; against PDE4D) was less than 10 µM in each case.
Take `COC(=O)C(CC(C)C)Nc1sc(C(=O)c2csc3ccccc23)c(N)c1C#N` (stereo not shown) [Compound 1-121, 2-[4-Amino-5-(benzo[b]thiophene-3-carbonyl)-3-cyano-thiophen-2-ylamino]-4-methyl-pentanoic acid methyl ester]: the IC50 (in assay [1] (setting [4]); at PDE4D (setting [5])) was less than 10 µM each time.
As for `COC(=O)c1ccc(S(=O)(=O)Nc2cccc3cccnc23)o1` [Compound 3-44, 5-(Quinolin-8-ylsulfamoyl)-furan-2-carboxylic acid methyl ester], the IC50 (in assay [1] (setting [2]); at PDE4D (setting [3])) was greater than 10 µM throughout.
On to `N#Cc1c(Nc2ccc(Oc3ccccc3)cc2)sc(C(=O)c2ccccc2)c1N` [Compound 1-185, 4-Amino-5-benzoyl-2-(4-phenoxy-phenylamino)-thiophene-3-carbonitrile], for which the IC50 (in assay [1] (setting [4]); at PDE4D (setting [5])) was less than 10 µM throughout.
In the case of `Cc1onc(-c2ccccc2)c1C(=O)c1sc(NC2CCOC2=O)c(C#N)c1N` (stereo not shown) [Compound 1-134, 4-Amino-5-(5-methyl-3-phenyl-isoxazole-4-carbonyl)-2-(2-oxo-tetrahydro-furan-3-ylamino)-thiophene-3-carbonitrile], the IC50 in assay [1] (setting [4]) was less than 10 µM; at PDE4D (setting [5]), greater than 10 µM.
With `COc1cc(NS(=O)(=O)c2ccc(S(=O)(=O)c3ccccc3)s2)c2ncccc2c1` [Compound 3-41, 5-Benzenesulfonyl-thiophene-2-sulfonic acid (6-methoxy-quinolin-8-yl)-amide], the IC50 in assay [1] (setting [2]) is less than 10 µM; at PDE4D (setting [3]), greater than 10 µM.
For `CCOC(=O)c1cc(C(=O)c2sc(NC3CCOC3=O)c(C#N)c2N)on1` (stereo not shown) [Compound 1-140, 5-[3-Amino-4-cyano-5-(2-oxo-tetrahydro-furan-3-ylamino)-thiophene-2-carbonyl]-isoxazole-3-carboxylic acid ethyl ester], the IC50 in assay [1] (setting [4]) was less than 10 µM; on PDE4D (setting [5]) it was greater than 10 µM.
On to `N#Cc1cccc(Nc2nc(N)c(C(=O)C3CCCC3)s2)c1` [Compound 2-100, 3-(4-Amino-5-cyclopentanecarbonyl-thiazol-2-ylamino)-benzonitrile], for which the IC50 (in assay [1] (setting [6]); on PDE4D (setting [7])) was less than 10 µM each time.
In the case of `Nc1nc(Nc2ccccc2F)sc1C(=O)c1ccc(OC(F)F)cc1` [Compound 2-58, [4-Amino-2-(2-fluoro-phenylamino)-thiazol-5-yl]-(4-difluoromethoxy-phenyl)-methanone], the IC50 (in assay [1] (setting [6]); at PDE4D (setting [7])) was less than 10 µM in each case.
As to `O=S(=O)(Nc1cccc2cccnc12)c1ccc(-c2cnco2)s1` [Compound 3-34, 5-Oxazol-5-yl-thiophene-2-sulfonic acid quinolin-8-ylamide], the IC50 (in assay [1] (setting [2]); at PDE4D (setting [3])) was less than 10 µM in each case.
Take `Nc1nc(Nc2c(Cl)cccc2Cl)sc1C(=O)CC1CCCC1` [Compound 2-94, 1-[4-Amino-2-(2,6-dichloro-phenylamino)-thiazol-5-yl]-2-cyclopentyl-ethanone]: the IC50 (in assay [1] (setting [6]); at PDE4D (setting [7])) was greater than 10 µM in each case.
As for `N#Cc1c(NC2CCCC2)sc(C(=O)c2cc(Br)no2)c1N` [Compound 1-207, 4-Amino-5-(3-bromo-isoxazole-5-carbonyl)-2-cyclopentylamino-thiophene-3-carbonitrile], the IC50 (in assay [1] (setting [4]); on PDE4D (setting [5])) was less than 10 µM in each case.
Take `COc1cccc(C(=O)c2sc(NC(C)C)nc2N)c1` [Compound 2-69, (4-Amino-2-isopropylamino-thiazol-5-yl)-(3-methoxy-phenyl)-methanone]: the IC50 in assay [1] (setting [6]) was less than 10 µM; at PDE4D (setting [7]), greater than 10 µM.
Take `N#Cc1c(NC2CCCC2)sc(C(=O)c2ccccc2Cl)c1N` [Compound 1-115, 4-Amino-5-(2-chloro-benzoyl)-2-cyclopentylamino-thiophene-3-carbonitrile]: the IC50 (in assay [1] (setting [4]); on PDE4D (setting [5])) was less than 10 µM each time.
As to `COc1ccc(Nc2nc(N)c(C(=O)c3cccc(OC)c3)s2)cc1` [Compound 2-63, [4-Amino-2-(4-methoxy-phenylamino)-thiazol-5-yl]-(3-methoxy-phenyl)-methanone], the IC50 (in assay [1] (setting [6]); at PDE4D (setting [7])) was less than 10 µM in each case.
For the molecule `COC(=O)C(CC(C)C)Nc1sc(C(=O)c2ccccc2Cl)c(N)c1C#N` (stereo not shown) [Compound 1-111, 2-[4-Amino-5-(2-chloro-benzoyl)-3-cyano-thiophene-2-ylamino]-4-methyl-pentanoic acid methyl ester], the IC50 (in assay [1] (setting [4]); on PDE4D (setting [5])) was less than 10 µM in each case.
Consider `Cc1sc(-c2ccccc2)cc1C(=O)c1sc(NC2CCCC2)c(C#N)c1N` [Compound 1-234, 4-Amino-2-cyclopentylamino-5-(2-methyl-5-phenyl-thiophene-3-carbonyl)-thiophene-3-carbonitrile], for which the IC50 (in assay [1] (setting [4]); at PDE4D (setting [5])) was less than 10 µM each time.
For the molecule `Nc1nc(NC2CCCC2)sc1C(=O)c1nc2ccccc2s1` [Compound 2-103, (4-Amino-2-cyclopentylamino-thiazol-5-yl)-benzothiazol-2-yl-methanone], the IC50 (in assay [1] (setting [6]); at PDE4D (setting [7])) was less than 10 µM each time.
For the molecule `N#Cc1c(NC2CCCC2)sc(C(=O)c2ccsc2)c1N` [Compound 1-202, 4-Amino-2-cyclopentylamino-5-(thiophene-3-carbonyl)-thiophene-3-carbonitrile], the IC50 (in assay [1] (setting [4]); at PDE4D (setting [5])) was less than 10 µM throughout.
